Test results taken from ChEMBL document CHEMBL1129601, “Inhibitors of acyl-CoA: cholesterol O-acyl transferase (ACAT) as hypocholesterolemic agents. CI-1011: an acyl sulfamate with unique cholesterol-lowering activity in animals fed noncholesterol-supplemented diets” (J Med Chem, 1996).
Several values for one entry are separate records, joined by “and”; a condition that tells them apart may be missing. Equal values may be shown once.

Key:
[1] = system: Rattus norvegicus; assay: Evaluated for %change in cholesterol fed rats for total cholesterol at the dose of 0.03 mg/kg determined by Chronic screen test; type: functional
[2] = system: Rattus norvegicus; assay: Evaluated for %change in Normal, Chow fed rats for total cholesterol plasma level in rats at the dose of 10 mg/kg; type: functional
[3] = system: Rattus norvegicus; assay: Evaluated for %change in Normal, Chow fed for rats Plasma total triglyceride plasma level in rats at the dose of 30 mg/kg; type: functional
[4] = system: Rattus norvegicus; assay: Effect on the Normal, Chow fed rats for Plasma total triglyceride level in rats at the dose of 10 mg/kg; type: functional, organism-based; parameters: dose 10 mg/kg
[5] = system: Rattus norvegicus; assay: Evaluated for %change in cholesterol fed rats at the dose of 3 mg/kg determined by Acute screen test; type: functional
[6] = system: Rattus norvegicus; assay: Evaluated for %change in cholesterol fed rats at the dose of 0.1 mg/kg determined by Acute screen test; type: functional
[7] = system: Rattus norvegicus; assay: Evaluated for %change in cholesterol fed rats for total cholesterol at the dose of 1 mg/kg determined by Chronic screen test; type: functional
[8] = system: Rattus norvegicus; assay: Effect on the Cholesterol fed rats for HDL-C in rats at the dose of 0.03 mg/kg by Chroinc screen test; type: functional; also: unit not given here
[9] = system: Rattus norvegicus; assay: Effect on the Cholesterol fed rats for non-HDL-C in rats at the dose of 0.01 mg/kg by Chroinc screen test; type: functional; also: unit not given here
[10] = system: Rattus norvegicus; assay: Effect on the Cholesterol fed rats for HDL-C in rats at the dose of 10 mg/kg by Chroinc screen test; type: functional
[11] = system: Rattus norvegicus; assay: Evaluated for %change in cholesterol fed rats for total cholesterol at the dose of 0.001 mg/kg determined by Chronic screen test; type: functional
[12] = system: Rattus norvegicus; assay: Effect on the Normal, Chow fed rats for total cholesterol plasma level in rats at the dose of 10 mg/kg; type: functional, organism-based; parameters: dose 10 mg/kg
[13] = system: Rattus norvegicus; assay: Evaluated for %change in cholesterol fed rats for non-HDL-C at the dose of 0.3 mg/kg determined by Chronic screen test; type: functional
[14] = system: Rattus norvegicus; assay: Effect on the Cholesterol fed rats for total cholesterol level in rats at the dose of 0.001 mg/kg by Chroinc screen test; type: functional
[15] = system: Rattus norvegicus; assay: Effect on the Cholesterol fed rats for non-HDL-C in rats at the dose of 0.3 mg/kg by Chroinc screen test; type: functional; also: unit not given here
[16] = system: Rattus norvegicus; assay: Evaluated for %change in Normal, Chow fed rats for total cholesterol plasma level in rats at the dose of 30 mg/kg; type: functional
[17] = system: Rattus norvegicus; assay: Evaluated for %change in cholesterol fed rats at the dose of 1 mg/kg determined by Acute screen test; type: functional
[18] = system: Rattus norvegicus; assay: Evaluated for %change in cholesterol fed rats for non-HDL-C at the dose of 0.1 mg/kg determined by Chronic screen test; type: functional
[19] = system: Rattus norvegicus; assay: Effect on the Cholesterol fed rats for HDL-C in rats at the dose of 0.001 mg/kg by Chroinc screen test; type: functional; also: unit not given here
[20] = system: Rattus norvegicus; assay: Evaluated for %change in cholesterol fed rats for total cholesterol at the dose of 0.3 mg/kg determined by Chronic screen test; type: functional
[21] = system: Rattus norvegicus; assay: Effect on the Cholesterol fed rats for total cholesterol level in rats at the dose of 1 mg/kg by Chroinc screen test; type: functional; also: unit not given here
[22] = system: Rattus norvegicus; assay: Evaluated for %change in cholesterol fed rats for non-HDL-C at the dose of 10 mg/kg determined by Chronic screen test; type: functional
[23] = system: Rattus norvegicus; assay: Evaluated for %change in Normal, Chow fed rats for total cholesterol plasma level in rats at the dose of 3 mg/kg; type: functional
[24] = system: Rattus norvegicus; assay: Evaluated for %change in cholesterol fed rats at the dose of 0.3 mg/kg determined by Acute screen test; type: functional
[25] = system: Rattus norvegicus; assay: Effect on the Normal, Chow fed rats for total cholesterol plasma level in rats at the dose of 30 mg/kg; type: functional, organism-based; parameters: dose 30 mg/kg
[26] = system: Rattus norvegicus; assay: Evaluated for %change in cholesterol fed rats for HDL-C at the dose of 0.01 mg/kg determined by Chronic screen test; type: functional
[27] = system: Oryctolagus cuniculus; assay: Effect on Rabbits (Fed a Cholesterol-Free Casein Diet ) for plasma cholesterol at the dose of 3 mg/kg (post treatment); type: functional, organism-based; parameters: dose 3 mg/kg
[28] = system: Rattus norvegicus; assay: Evaluated for %change in cholesterol fed rats for HDL-C at the dose of 0.001 mg/kg determined by Chronic screen test; type: functional
[29] = system: Rattus norvegicus; assay: Evaluated for %change in cholesterol fed rats for non-HDL-C at the dose of 0.03 mg/kg determined by Chronic screen test; type: functional
[30] = system: Rattus norvegicus; assay: Evaluated for %change in cholesterol fed rats for HDL-C at the dose of 0.1 mg/kg determined by Chronic screen test; type: functional
[31] = system: Rattus norvegicus; assay: Effect on the Cholesterol fed rats for non-HDL-C in rats at the dose of 0.03 mg/kg by Chroinc screen test; type: functional; also: unit not given here
[32] = system: Oryctolagus cuniculus; assay: Effect on Rabbits (Fed a Cholesterol-Free Casein Diet ) for plasma cholesterol at the dose of 10 mg/kg (pretreatment); type: functional, organism-based; parameters: dose 10 mg/kg
[33] = system: Rattus norvegicus; assay: Evaluated for %change in cholesterol fed rats for non-HDL-C at the dose of 0.001 mg/kg determined by Chronic screen test; type: functional
[34] = system: Rattus norvegicus; assay: Evaluated for %change in cholesterol fed rats for HDL-C at the dose of 0.3 mg/kg determined by Chronic screen test; type: functional
[35] = system: Rattus norvegicus; assay: Evaluated for %change in cholesterol fed rats for HDL-C at the dose of 10 mg/kg determined by Chronic screen test; type: functional
[36] = system: Rattus norvegicus; assay: Effect on the Cholesterol fed rats for total cholesterol level in rats at the dose of 0.3 mg/kg by Chroinc screen test; type: functional
[37] = system: Rattus norvegicus; assay: Effect on the Cholesterol fed rats for total cholesterol level in rats at the dose of 0.03 mg/kg by Chroinc screen test; type: functional; also: unit not given here
[38] = system: Rattus norvegicus; assay: Evaluated for %change in Normal, Chow fed for rats Plasma total triglyceride plasma level in rats at the dose of 3 mg/kg; type: functional
[39] = system: Rattus norvegicus; assay: Effect on the Cholesterol fed rats for HDL-C in rats at the dose of 0.01 mg/kg by Chroinc screen test; type: functional
[40] = system: Oryctolagus cuniculus; assay: Effect on Rabbits (Fed a Cholesterol-Free Casein Diet ) for plasma cholesterol at the dose of 3 mg/kg (pretreatment); type: functional, organism-based; parameters: dose 3 mg/kg
[41] = system: Rattus norvegicus; assay: Effect on the Cholesterol fed rats for non-HDL-C in rats at the dose of 10 mg/kg by Chroinc screen test; type: functional
[42] = system: Rattus norvegicus; assay: Evaluated for %change in cholesterol fed rats for non-HDL-C at the dose of 1 mg/kg determined by Chronic screen test; type: functional
[43] = system: Oryctolagus cuniculus; assay: Effect on Rabbits (Fed a Cholesterol-Free Casein Diet ) for plasma cholesterol at the dose of 1 mg/kg (pretreatment); type: functional, organism-based; parameters: dose 1 mg/kg
[44] = system: Rattus norvegicus; assay: Evaluated for %change in cholesterol fed rats for total cholesterol at the dose of 0.01 mg/kg determined by Chronic screen test; type: functional
[45] = system: Rattus norvegicus; assay: Effect on the Cholesterol fed rats for non-HDL-C in rats at the dose of 0.1 mg/kg by Chroinc screen test; type: functional
[46] = system: Rattus norvegicus; assay: Effect on the Cholesterol fed rats for total cholesterol level in rats at the dose of 3 mg/kg by Chroinc screen test; type: functional
[47] = system: Oryctolagus cuniculus; assay: Effect on Rabbits (Fed a Cholesterol-Free Casein Diet ) for plasma cholesterol at the dose of 10 mg/kg (post treatment); type: functional, organism-based; parameters: dose 10 mg/kg
[48] = system: Rattus norvegicus; assay: Evaluated for %change in cholesterol fed rats for HDL-C at the dose of 3 mg/kg determined by Chronic screen test; type: functional
[49] = system: Rattus norvegicus; assay: Effect on the plasma cholesterol level in rats at the dose of 3 mg/kg by Acute screen test; type: functional, organism-based; parameters: dose 3 mg/kg
[50] = system: Rattus norvegicus; assay: Evaluated for %change in cholesterol fed rats for total cholesterol at the dose of 10 mg/kg determined by Chronic screen test; type: functional

Structure (SMILES): CC(C)c1cc(C(C)C)c(CC(=O)NS(=O)(=O)Oc2c(C(C)C)cccc2C(C)C)c(C(C)C)c1 [AVASIMIBE]
- Change [1]: -38%
- Change [2]: -25%
- Change [3]: -66%
- Plasma TG [4]: 75 mg/dL
- Change [5]: -64%
- Change [6]: -32%
- Change [7]: -61%
- HDL-C [8]: 15
- Non-HDL-C [9]: 604
- HDL-C [10]: 36
- Change [11]: 3%
- Plasma TC [12]: 44 mg/dL
- Change [13]: -66%
- TC [14]: 551
- Non-HDL-C [15]: 70
- Change [16]: -30%
- Change [17]: -60%
- Change [18]: -45% and -41%
- HDL-C [19]: 16
- Change [20]: -60%
- TC [21]: 86
- Change [22]: -84%
- Change [23]: -16%
- Change [24]: -56%
- Plasma TC [25]: 41 mg/dL
- Change [26]: -12%
- Plasma cholesterol [27]: 171 mg/dL
- Change [28]: -3%
- Change [29]: -38%
- Change [30]: 17% and 7%
- Non-HDL-C [31]: 320
- Plasma cholesterol [32]: 209 mg/dL
- Change [33]: 3%
- Change [34]: 42%
- Change [35]: 155%
- TC [36]: 90
- TC [37]: 334
- Change [38]: -44%
- HDL-C [39]: 15
- Plasma cholesterol [40]: 250 mg/dL
- Non-HDL-C [41]: 33
- Change [42]: -70%
- Plasma cholesterol [43]: 215 mg/dL
- Change [44]: 16%
- Non-HDL-C [45]: 114 and 306
- TC [46]: 92
- Plasma cholesterol [47]: 118 mg/dL
- Change [48]: 140%
- Plasma cholesterol [49]: 66 mg/dL
- Change [50]: -69%
